Test results published in PubChem BioAssay AID504628 (Vanderbilt High Throughput Screening Facility, 2011).

Biological target: Voltage-dependent T-type calcium channel subunit alpha-1H (Homo sapiens) (UniProt O95180)
Experiment: Cav3.2 current block by patch clamp, late-stage follow-up, orthogonal assay for T-type calcium channel inhibitor project, HEK293 cells, whole-cell recording (AID 504628)
Conditions: HEK293-Cav3.2 whole-cell patch clamp, Ba2+ current; at 1 µM

Voltage-dependent T-type calcium channel subunit alpha-1H (Homo sapiens), sequence (O95180 whole entry, looked up): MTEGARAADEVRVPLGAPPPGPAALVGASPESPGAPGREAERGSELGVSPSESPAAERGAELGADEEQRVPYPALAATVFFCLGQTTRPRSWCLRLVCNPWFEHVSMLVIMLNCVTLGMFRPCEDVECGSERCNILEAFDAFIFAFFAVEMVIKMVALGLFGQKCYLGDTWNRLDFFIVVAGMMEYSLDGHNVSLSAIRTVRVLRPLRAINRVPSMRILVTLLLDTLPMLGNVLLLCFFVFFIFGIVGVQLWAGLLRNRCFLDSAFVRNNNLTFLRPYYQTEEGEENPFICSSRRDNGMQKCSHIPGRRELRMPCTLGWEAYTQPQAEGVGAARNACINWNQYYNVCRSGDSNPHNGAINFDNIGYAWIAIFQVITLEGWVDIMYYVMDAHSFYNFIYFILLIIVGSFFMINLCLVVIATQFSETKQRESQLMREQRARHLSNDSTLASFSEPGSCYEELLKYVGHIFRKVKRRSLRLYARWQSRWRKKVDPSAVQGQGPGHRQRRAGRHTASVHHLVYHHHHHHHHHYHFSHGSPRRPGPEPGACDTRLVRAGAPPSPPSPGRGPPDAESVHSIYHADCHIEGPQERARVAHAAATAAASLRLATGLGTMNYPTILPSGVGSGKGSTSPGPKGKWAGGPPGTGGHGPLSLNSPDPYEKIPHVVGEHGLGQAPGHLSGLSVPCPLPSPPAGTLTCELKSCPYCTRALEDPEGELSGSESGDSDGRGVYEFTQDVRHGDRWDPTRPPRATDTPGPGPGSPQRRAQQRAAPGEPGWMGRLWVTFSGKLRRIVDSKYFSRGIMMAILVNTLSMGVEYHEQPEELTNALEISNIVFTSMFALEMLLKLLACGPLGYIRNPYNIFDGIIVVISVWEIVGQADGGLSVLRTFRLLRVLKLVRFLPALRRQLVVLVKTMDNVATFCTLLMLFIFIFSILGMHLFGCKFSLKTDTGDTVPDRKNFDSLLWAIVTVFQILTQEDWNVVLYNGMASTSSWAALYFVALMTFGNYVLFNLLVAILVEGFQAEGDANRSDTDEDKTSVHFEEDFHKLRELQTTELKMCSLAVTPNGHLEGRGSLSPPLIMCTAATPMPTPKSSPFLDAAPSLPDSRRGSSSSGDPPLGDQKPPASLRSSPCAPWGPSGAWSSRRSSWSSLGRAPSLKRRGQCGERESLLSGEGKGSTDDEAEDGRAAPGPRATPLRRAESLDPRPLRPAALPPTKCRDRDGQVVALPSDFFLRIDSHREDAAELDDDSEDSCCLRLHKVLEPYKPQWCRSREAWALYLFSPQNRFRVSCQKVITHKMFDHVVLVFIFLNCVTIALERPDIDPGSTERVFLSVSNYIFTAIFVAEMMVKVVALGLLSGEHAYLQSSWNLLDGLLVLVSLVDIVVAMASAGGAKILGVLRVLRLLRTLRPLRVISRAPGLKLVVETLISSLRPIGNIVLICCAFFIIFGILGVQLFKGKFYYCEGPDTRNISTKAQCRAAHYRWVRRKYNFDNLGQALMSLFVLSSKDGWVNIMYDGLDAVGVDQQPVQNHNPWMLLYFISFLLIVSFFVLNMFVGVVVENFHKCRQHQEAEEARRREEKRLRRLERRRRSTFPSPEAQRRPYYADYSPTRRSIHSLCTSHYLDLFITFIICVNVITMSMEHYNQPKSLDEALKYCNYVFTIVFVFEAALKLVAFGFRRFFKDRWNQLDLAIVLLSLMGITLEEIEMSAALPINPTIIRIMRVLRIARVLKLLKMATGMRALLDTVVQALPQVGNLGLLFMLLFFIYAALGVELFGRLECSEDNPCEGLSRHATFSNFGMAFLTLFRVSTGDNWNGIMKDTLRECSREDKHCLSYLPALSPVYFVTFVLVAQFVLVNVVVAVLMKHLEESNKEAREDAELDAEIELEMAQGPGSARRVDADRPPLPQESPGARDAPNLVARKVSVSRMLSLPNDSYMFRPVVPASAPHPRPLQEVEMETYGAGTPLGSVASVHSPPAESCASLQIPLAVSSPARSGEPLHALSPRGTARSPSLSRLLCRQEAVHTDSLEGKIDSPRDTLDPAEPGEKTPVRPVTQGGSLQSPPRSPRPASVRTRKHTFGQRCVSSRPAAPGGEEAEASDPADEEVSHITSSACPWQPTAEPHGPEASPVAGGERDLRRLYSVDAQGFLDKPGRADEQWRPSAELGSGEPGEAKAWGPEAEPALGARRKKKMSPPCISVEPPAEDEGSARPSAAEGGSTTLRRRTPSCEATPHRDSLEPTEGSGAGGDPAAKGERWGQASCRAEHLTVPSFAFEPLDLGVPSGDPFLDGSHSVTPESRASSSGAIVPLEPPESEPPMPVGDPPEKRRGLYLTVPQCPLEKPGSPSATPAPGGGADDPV

current: -1010 pA
SMILES: CC(C)(C)CCN1C[C@@H]2C(CNC(=O)c3cc(Cl)cc(Cl)c3)[C@@H]2C1 (stereo partly specified)
